Measurements published in US20090156569A1, “ORAL CONTRACEPTIVE SPRAY” (N.V. Organon, priority 2007, published 2009).
In brackets after ≈: the same amount, converted by molar mass. Like-named read-outs stand apart in the source and are kept apart here.

Key:
[1] = Cross-over pharmacokinetic study: sublingual oral spray (75 μg etonogestrel) versus ingested Cerazette tablet; type: in vivo, human; conditions: oral mucosal administration of etonogestrel; FIGS. 6 and 7
Description: Sixteen healthy female subjects were treated with 0.1 ml of oral spray comprising the liquid as depicted in table 6 to administer 75 μg etonogestrel, or with Cerazette® tablets (75 μg desogestrel) in a cross over design. The spray has been administered sublingually. Cerazette® has been ingested. Serum concentration versus time profiles were obtained for etonogestrel.
This leads to the conclusion that a lower dose of either etonogestrel is possible for oral mucosal administration to achieve a similar pharmacological effect.

[2] = exposure of etonogestrel after oral ingestion as its prodrug desogestrel; cited from earlier work
[3] = design: species or system human; conditions: in vivo
Description: Sixteen healthy female subjects were treated with 0.1 ml of the oral spray as described in Example 1 or with Marvelon® tablets (150 μg desogestrel, 30 μg ethinyl estradiol) in a cross over design. The spray was administered sublingually. Marvelon® was ingested. Serum concentration versus time profiles were obtained for etonogestrel and plasma concentration versus time profiles were obtained for ethinyl estradiol. FIGS. 2, 3, 4 and 5 show the average values of the serum/plasma concentrations versus time profiles.
This leads to the conclusion that a lower dose of either etonogestrel, or ethinyl estradiol, or both is possible for oral mucosal administration.

[4] = Solubility of the active ingredients in liquid solutions (Liquids 1-5); type: physicochemical; conditions: for solubility: aqueous with cosolvent or surfactant or cyclodextrin
Description: Solutions were prepared essentially according to the procedure as described in Example 1. The solubility of each one of the active ingredients desogestrel, 3-β-hydroxydesogestrel, 3-keto desogestrel and ethinyl estradiol in these solutions was tested.

[5] = Liquid 1: water 25, ethanol 20, glycerol 25, propylene glycol 25, polysorbate 80 5 % v/v, read-out: Solubility in Liquid 1
[6] = Liquid 2: water 25, ethanol 25, glycerol 20, propylene glycol 25, polysorbate 80 5 % v/v, read-out: Solubility in Liquid 2
[7] = Liquid 3: water 25, ethanol 30, glycerol 15, propylene glycol 25, polysorbate 80 5 % v/v, read-out: Solubility in Liquid 3
[8] = Liquid 4: water 25, ethanol 25, glycerol 25, propylene glycol 25, polysorbate 80 0 % v/v, read-out: Solubility in Liquid 4
[9] = Liquid 5: water 30, ethanol 30, glycerol 25, propylene glycol 15, polysorbate 80 0 % v/v, read-out: Solubility in Liquid 5

Compound | levels of etonogestrel (in serum) compared to oral ingestion of an equivalent amount of desogestrel using a tablet [1] | oral bioavailability [2] | levels of etonogestrel (in serum) compared to oral ingestion of equivalent amounts using a tablet [3] | solubility [4, 5] [µg/mL] | solubility [4, 6] [µg/mL] | solubility [4, 7] [µg/mL] | solubility [4, 8] [µg/mL] | solubility [4, 9] [µg/mL] | Solubility in Liquid 1 [4] | Solubility in Liquid 2 [4] | Solubility in Liquid 3 [4] | Solubility in Liquid 4 [4] | Solubility in Liquid 5 [4] | levels of ethinyl estradiol (in plasma) compared to oral ingestion of equivalent amounts using a tablet [3]
C#C[C@]1(O)CC[C@H]2[C@@H]3CCC4=CC(=O)CC[C@@H]4[C@H]3C(=C)C[C@@]21CC [Etonogestrel, 13-ethyl-11methylene-17β-hydroxy-18,19-dinor-17α-pregnen-3-one] | much higher levels | about 80% | much higher levels | 5500 (≈ 17 mM) | 5800 (≈ 17.9 mM) | 7300 (≈ 22.5 mM) | 4200 (≈ 12.9 mM) | 3400 (≈ 10.5 mM) |  |  |  |  |  | 
C#C[C@]1(O)CC[C@H]2[C@@H]3CCC4=CCCC[C@@H]4[C@H]3C(=C)C[C@@]21CC [Desogestrel] |  |  |  | 11300 (≈ 36.4 mM) | 12400 (≈ 39.9 mM) | 13400 (≈ 43.2 mM) | 2100 (≈ 6.76 mM) | 1500 (≈ 4.83 mM) |  |  |  |  |  | 
C#C[C@]1(O)CC[C@H]2[C@@H]3CCC4=C[C@@H](O)CC[C@@H]4[C@H]3C(=C)C[C@@]21CC [3-β-Hydroxy-desogestrel] |  |  |  |  |  |  |  |  | ≧8.8 mg/mL | ≧7.0 mg/mL | ≧6.1 mg/mL | ≧6.9 mg/mL | ≧8.7 mg/mL | 
C#C[C@]1(O)CC[C@H]2[C@@H]3CCc4cc(O)ccc4[C@H]3CC[C@@]21C [Ethinyl Estradiol] |  |  |  | ≥ 10900 | ≥ 10800 | ≥ 14100 | 11200 (≈ 37.8 mM) | 12400 (≈ 41.8 mM) |  |  |  |  |  | much higher levels
